Here are results for 23 molecules from patent US20230210834A1, “RNA METHYLTRANSFERASE INHIBITOR, SCREENING METHOD THEREFOR, ANTI-CANCER AGENT EFFICACY ASSESSMENT MARKER, AND KIT FOR EFFECTIVELY PREDICTING FTSJ1 INHIBITOR” (National University Corporation Okayama University, priority 2019, published 2023).

In experiment [1] the test system is polyglutamine luciferase reporter. Put plainly: Screening: polyglutamine luciferase reporter assay in NUGC3 cells (luminescence % of DMSO). Type of experiment: cell-based, human. The protocol:
(§1) Human gastric cancer cell line NUGC3 was cultured in a DMEM medium (high glucose with L-glutamine and phenol red, produced by FUJIFILM Wako Pure Chemical Corporation) containing 10% fetal bovine serum (produced by Thermo Fisher Scientific Inc.) and penicillin-streptomycin (produced by FUJIFILM Wako Pure Chemical Corporation) (this medium is simply referred to below as “DMEM+10% FBS+1×P/S”). Then, the NUGC3 cells were seeded in a 60-mm culture dish (produced by BioLite) so that the cells were 80% confluent after 24 hours. Subsequently, 5 μg of a reporter plasmid and 15 μL of a lipofection reagent (transIT-LT1, produced by Mirus Bio LLC) were mixed in 500 μL of Opti-MEM medium (produced by Thermo Fisher Scientific, Inc.) to form a complex, which was added to the medium in which the NUGC3 cells were cultured in the 60-mm culture dish. For use as the reporter plasmid, 5 μg of a polyglutamine luciferase reporter was introduced (in the polyglutamine luciferase reporter, a Renilla luciferase expressed in the IRES was located as an internal standard downstream of the sequence of a firefly luciferase sequence to which polyglutamine was added). Alternatively, a YAP/TAZ activity reporter was used by simultaneously introducing 3 μg of 8×GTIIC plasmid and 2 μg of a Renilla luciferase reporter as an internal standard. After another 24 hours, the cells were exfoliated with a 0.05 w/v % trypsin-0.53 mmol/l EDTA-4Na solution (produced by FUJIFILM Wako Pure Chemical Corporation), and then seeded in a 96-well plate (produced by BioLite) so that the cells were 80% confluent after 24 hours. Twenty-four hours after seeding in the 96-well plate, the medium in each well was replaced with 100 μL of a medium (DMEM+10% FBS+an antibiotic) containing 10 μM or 5 μM of a compound for evaluation. After another 24 hours, the medium containing the compound was removed, and the 96-well plate was transferred on ice. Each well was washed with 100 μL of phosphate buffer (PBS, produced by FUJIFILM Wako Pure Chemical Corporation). Thereafter, 20 μL of Passive Lysis Buffer (1×) contained in a Dual-Luciferase Reporter Assay System (produced by Promega Corporation) was added. The plate was then gently shaken for 15 minutes at room temperature to lyse the cells. After confirming that the cells were lysed, 10 μL of the lysate was transferred from each well to each corresponding well of a white 96-well plate (produced by Greiner Bio-one). To each well of the white 96-well plate was added 100 μL of a mixture of a Luciferase Assay Buffer II and Luciferase Assay Substrate contained in the Dual-Luciferase Reporter Assay System (produced by Promega Corporation), whereby the luminescence of the firefly luciferase was induced, and the luminescence intensity was detected with a microluminometer (produced by Berthold Japan K.K.). Subsequently, 100 μL of a mixture of Stop & Glo Buffer and Stop & Glo Substrate contained in the Dual-Luciferase Reporter Assay System (produced by Promega Corporation) was added, whereby the luminescence of firefly luciferase was quenched while the luminescence of Renilla luciferase was induced, and the luminescence intensity was detected with a microluminometer (produced by Berthold Japan K.K.) in a manner similar to the above. The ratio of the luminescence intensity of the firefly luciferase and the luminescence intensity of the Renilla luciferase was calculated, and the luminescence intensity (%) of the wells containing each compound was calculated with the luminescence intensity of the well containing DMSO (dimethyl sulfoxide, used as a solvent for the compound liquids) taken as 100%. […] Unless otherwise specified, the measured values in the table represent the results obtained by evaluation with the addition of 10 μM of each compound for evaluation.
In general terms: In a reporter assay the amount or activity of a reporter protein is the signal.

In the next experiment the test system is YAP/TAZ. Nature of the experiment: Screening: YAP/TAZ activity reporter (8xGTIIC plasmid) assay in NUGC3 cells (luminescence % of DMSO). The class given is cell-based, human. The protocol:
as §1

Where [2] appears, read: polyglutamine luciferase reporter, NUGC3 cells, luminescence relative to DMSO, concentration not given.
[3] abbreviates: YAP/TAZ activity reporter (8×GTIIC), NUGC3 cells, luminescence relative to DMSO, concentration not given.
[4] abbreviates: NUGC3 cells, luminescence relative to DMSO, concentration not given.

Where two headings read alike, the source gives them in different places.

On to `CC(C)c1cc(C(C)C)c(S(=O)(=O)CC(c2ccccc2)c2ccc(-c3ccccc3)cc2)c(C(C)C)c1` (stereo not shown) [PVZF2083], for which the Polyglutamine in experiment [1] (setting [2]) stood at 69%. For the same molecule, in the experiment with YAP/TAZ (setting [3]), the “8×GTIIC” value amounted to 108.4%.
In experiment [1] (setting [4]), `Cc1ccc(C2=NC(S(C)(=O)=O)C(c3ccc(C)cc3)C2)cc1` (stereo not shown) [PVZF0087] returned a Polyglutamine of 81.35%. Also, the “8×GTIIC” value in the experiment on YAP/TAZ (setting [4]) stood at 187.1%.
`CCCCCCS(=O)(=O)c1ccc(C(C)(C)CC)cc1` [PVZF2038]: the Polyglutamine in experiment [1] (setting [2]) was 58.2%. In addition, the “8×GTIIC” value with YAP/TAZ (setting [3]) worked out at 56.84%.
In experiment [1] (setting [2]), `CCC(C)(C)c1ccc(S(=O)(=O)CCc2ccccc2)cc1` [PVZF2041] returned a Polyglutamine of 78.87%. Moreover, the “8×GTIIC” value with YAP/TAZ (setting [3]) came to 79.61%.
As to `CC(=O)C1C=C(c2ccc(C)cc2)CC1c1ccc2ccccc2c1` (stereo not shown) [PZ178], in experiment [1] (setting [2]), the Polyglutamine is 60.25%. For the same molecule, in the experiment with YAP/TAZ (setting [3]), the “8×GTIIC” value was found to be 119.3%.
As for `CCCCCCS(=O)(=O)c1ccc2ccccc2c1` [PVZF2011], in experiment [1] (setting [2]), the Polyglutamine was 28.85%. The “8×GTIIC” value in the experiment on YAP/TAZ (setting [3]) came to 36.2%.
For the molecule `CCc1ccccc1C1CC(c2ccc(C)cc2)=NC1S(C)(=O)=O` (stereo not shown) [PVZF0060], the Polyglutamine in experiment [1] (setting [4]) was 38.44%. Further, in the experiment with YAP/TAZ (setting [4]), the “8×GTIIC” value was determined as 44.13%.
In turn, `O=C(CCCCc1ccccc1)C1CCC(CS(=O)(=O)c2ccccc2)CC1` (stereo not shown) [SA012] returned a Polyglutamine in experiment [1] (setting [2]) of 86.48%. Also, the “8×GTIIC” value in the experiment on YAP/TAZ (setting [3]) worked out at 91.92%.
`O=S(=O)(CC1CCC(C2CC2)CC1)c1ccc2c(c1)CCCC2` (stereo not shown) [SA031] displayed a Polyglutamine in experiment [1] (setting [2]) of 62.23%. The “8×GTIIC” value in the experiment with YAP/TAZ (setting [3]) is recorded as 76.14%.
As for `Cc1ccc(S(=O)(=O)CC2CCC(C3CC3)CC2)c(C)c1` (stereo not shown) [SA050], the Polyglutamine in experiment [1] (setting [2]) is on record as 60.42%. In addition, the “8×GTIIC” value with YAP/TAZ (setting [3]) is 92.26%.
In the case of `O=S(=O)(CCc1ccccc1)c1ccc(-c2ccccc2)cc1` [PVZF2032], the Polyglutamine in experiment [1] (setting [2]) came out at 73.08%. In the experiment on YAP/TAZ (setting [3]), the “8×GTIIC” value amounted to 76.99%.
The corresponding values for `Cc1ccc(S(=O)(=O)CC2CC(C)(C)CC(C)(C)C2)cc1C(F)(F)F` [SA001] are 83.34% and 74.98%.
In the case of `O=S(=O)(NCCC1=CCCCC1)c1ccc(-c2ccccc2)cc1` [PVZF2035, N-(2-(cyclohexy-1-en-1-yl)ethyl)-[1,1′-biphenyl]-4-sulfonamide], the Polyglutamine in experiment [1] was found to be 58.85%. Also, in the experiment on YAP/TAZ, the “8×GTIIC” value amounted to 71.12%.
Take `CS(=O)(=O)C1CCC(CS(=O)(=O)c2ccc3c(c2)CCCCC3)CC1` (stereo not shown) [SA061]: the Polyglutamine in experiment [1] (setting [2]) is recorded as 66.4%. Also, in the experiment with YAP/TAZ (setting [3]), the “8×GTIIC” value is given as 96.27%.
In experiment [1] (setting [2]), `CC(=O)C1CC(c2cccc(C)c2)CC1c1ccccc1` (stereo not shown) [PZ163] gave a Polyglutamine of 71.16%. The “8×GTIIC” value with YAP/TAZ (setting [3]) amounted to 103.2%.
In the same order, the values of `CC1(C)CC(CS(=O)(=O)c2ccc(-c3ccccc3)cc2)CC(C)(C)C1` [PVZF2036] are 79.76% and 70.46%.
In turn, `Cc1ccc(C2=NC(S(=O)(=O)c3ccc(C)cc3)C(c3ccccc3C)C2)cc1` (stereo not shown) [PVZF0094] registered a Polyglutamine in experiment [1] (setting [4]) of 69.05%. The “8×GTIIC” value in the experiment with YAP/TAZ (setting [4]) is listed as 97.79%.
In the same order, the values of `CC(=O)c1cccc(C2CC(c3ccc(C)cc3)=NC2S(=O)(=O)c2ccccc2)c1` (stereo not shown) [PVZF0093] are 45.45% and 59.77%.
The molecule `O=S(=O)(CC1CCC(S(=O)(=O)c2cccs2)CC1)c1ccc2c(c1)CCCC2` (stereo not shown) [SA047] showed a Polyglutamine in experiment [1] (setting [2]) of 47.4%. Besides, in the experiment on YAP/TAZ (setting [3]), the “8×GTIIC” value is reported as 56.12%.
Regarding `CCc1cccc(C2CC(c3ccccc3)=NC2S(=O)(=O)c2ccc(C)cc2)c1CC` (stereo not shown) [PVZF0068], the Polyglutamine in experiment [1] (setting [4]) amounted to 39.33%. Besides, the “8×GTIIC” value in the experiment on YAP/TAZ (setting [4]) worked out at 51.65%.
In turn, `CCC(C)(C)c1ccc(S(=O)(=O)CC2CCCCC2)cc1` [PVZF2039] gave a Polyglutamine in experiment [1] (setting [2]) of 53.6%. In the experiment on YAP/TAZ (setting [3]), the “8×GTIIC” value was determined as 60%.
In turn, `O=S(=O)(CC1CCCCC1)c1ccccc1` [PVZF2048] gave a Polyglutamine in experiment [1] (setting [2]) of 73.33%. The “8×GTIIC” value with YAP/TAZ (setting [3]) is given as 69.86%.
Take `Cc1ccc(S(=O)(=O)CC2CCC(S(C)(=O)=O)CC2)c(C(C)(C)C)c1` (stereo not shown) [SA085]: in experiment [1] (setting [2]), the Polyglutamine was determined as 86%. The “8×GTIIC” value in the experiment with YAP/TAZ (setting [3]) came out at 83.09%.
